What all share (assay): Minimum Inhibitory Concentration Assay (broth microdilution, CLSI)
What all share (type): cell-based
On the technique in general: Dilution methods test growth across graded concentrations, often in twofold steps.

One assay concerns E. coli 7623. The gist of the method: (§1)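 CLSI broth microdilution for aerobic bacteria; compounds serially diluted in the recommended broth over a final range of 0.125–128 mcg/mL, final DMSO below 1%. MIC read as the lowest concentration inhibiting visible growth.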
The subject of the next assay is K. pneumoniae 1161486. The gist of the method:
as §1

In the next assay the test system is P. aeruginosa PA01. The following applies: Pseudomonas aeruginosa. The gist of the method:
as §1

The mark [1] stands for this setting: Escherichia coli, strain 7623, broth microdilution, read-out: E. coli 7623 MIC.
The mark [2] stands for this setting: Klebsiella pneumoniae, strain 1161486, broth microdilution, read-out: K. pneumoniae 1161486 MIC.
Setting [3] is: strain PA01, broth microdilution, read-out: P. aeruginosa PA01 MIC.

Each structure is given as a SMILES string. ≈ marks a conversion by molar mass, not a printed value. Where a name gives a salt, the structure may show the parent alone. Read-outs that look alike come from different tables or passages of the source. Where only a bound is given, the exact number is not on record here.

For `CCOc1ccc(-c2ccc3c(=O)n(CC[C@](C)(C(=O)NO)S(C)(=O)=O)cnc3c2)cc1` [Example 46, (2R)-4-[7-(4-ethoxyphenyl)-4-oxo-3,4-dihydroquinazolin-3-yl]-N-hydroxy-2-methanesulfonyl-2-methylbutanamide], the figures for the MIC in the assay on E. coli 7623 (setting [1]), in the assay on K. pneumoniae 1161486 (setting [2]) and in the assay with P. aeruginosa PA01 (setting [3]) were < 0.03 µg/mL, 0.125 µg/mL (≈ 0.272 µM) and 1 µg/mL (≈ 2.18 µM), respectively.

Turning to `COc1ccc(-c2ccc3c(=O)n(CC[C@](C)(C(=O)NO)S(C)(=O)=O)cc(F)c3c2)cn1` [Example 87, (2R)-4-[4-fluoro-6-(6-methoxypyridin-3-yl)-1-oxo-1,2-dihdroisoquinolin-2-yl]-N-hydroxy-2-methanesulfonyl-2-methylbutanamide], the MIC with E. coli 7623 (setting [1]) worked out at 0.06 µg/mL (≈ 0.129 µM); in the assay with K. pneumoniae 1161486 (setting [2]), 0.25 µg/mL (≈ 0.539 µM); with P. aeruginosa PA01 (setting [3]) it was 8 µg/mL (≈ 17.3 µM).

With `C[C@@](CCn1cnc2cc(-c3ccc(CCN4CCOCC4)cc3)c(F)cc2c1=O)(C(=O)NO)S(C)(=O)=O` [Example 21, (2R)-4-(6-fluoro-7-{4-[2-(morpholin-4-yl)ethyl]phenyl}-4-oxo-3,4-dihydroquinazolin-3-yl)-N-hydroxy-2-methanesulfonyl-2-methylbutanamide], the MIC with E. coli 7623 (setting [1]) was determined as 0.063 µg/mL (≈ 0.115 µM); in the assay with K. pneumoniae 1161486 (setting [2]), 0.5 µg/mL (≈ 0.915 µM); in the assay on P. aeruginosa PA01 (setting [3]), 4 µg/mL (≈ 7.32 µM).

Consider `C[C@@](CCn1cnc2cc(-c3ccc(CCO)cc3F)ccc2c1=O)(C(=O)NO)S(C)(=O)=O` [Example 45, (2R)-4-{7-[2-fluoro-4-(2-hydroxyethyl)phenyl]-4-oxo-3,4-dihydroquinazolin-3-yl}-N-hydroxy-2-methanesulfonyl-2-methylbutanamide], for which the MIC amounted to 0.063 µg/mL (≈ 0.132 µM) with E. coli 7623 (setting [1]), 1 µg/mL (≈ 2.09 µM) with K. pneumoniae 1161486 (setting [2]) and 1 µg/mL (≈ 2.09 µM) with P. aeruginosa PA01 (setting [3]).

`COCCNCc1ccc(-c2ccc3c(=O)n(CC[C@](C)(C(=O)NO)S(C)(=O)=O)ccc3c2)c(F)c1F` [Example 71, (R)-4-(6-(2,3-difluoro-4-(((2-methoxyethyl)amino)methyl)phenyl)-1-oxoisoquinolin-2(1H)-yl)-N-hydroxy-2-methyl-2-(methylsulfonyl)butanamide]: the MIC in the assay on E. coli 7623 (setting [1]) is 0.063 µg/mL (≈ 0.117 µM); with K. pneumoniae 1161486 (setting [2]) it was 0.5 µg/mL (≈ 0.93 µM); with P. aeruginosa PA01 (setting [3]), 0.5 µg/mL (≈ 0.93 µM).

Consider `C[C@@](CCn1cnc2cc(-c3ccc(OC(F)F)cc3)ccc2c1=O)(C(=O)NO)S(C)(=O)=O` [Example 5, (R)-4-(7-(4-(difluoromethoxy)phenyl)-4-oxoquinazolin-3(4H)-yl)-N-hydroxy-2-methyl-2-(methylsulfonyl)butanamide], for which the MIC with E. coli 7623 (setting [1]) is ≤ 0.03 µg/mL; in the assay on K. pneumoniae 1161486 (setting [2]), 0.06 µg/mL (≈ 0.125 µM); in the assay on P. aeruginosa PA01 (setting [3]), 2 µg/mL (≈ 4.15 µM).

Consider `C[C@@](CCn1cnc2cc(-c3ccc(CN4CCOCC4)cc3)c(F)cc2c1=O)(C(=O)NO)S(C)(=O)=O` [Example 20, (R)-4-(6-fluoro-7-(4-(morpholinomethyl)phenyl)-4-oxoquinazolin-3(4H)-yl)-N-hydroxy-2-methyl-2-(methylsulfonyl)butanamide hydrochloride], for which the MIC in the assay with E. coli 7623 (Escherichia coli, 7623, read-out: E. coli 7623 MIC (ug/mL)) came out at 0.125 µg/mL; with K. pneumoniae 1161486 (Klebsiella pneumoniae, 1161486, read-out: K. pneumoniae 1161486 MIC (ug/mL)), 0.25 µg/mL; with P. aeruginosa PA01 (PA01, read-out: P. aeruginosa PA01 MIC (ug/mL)) it was 4 µg/mL.

For the compound `C[C@@](CCn1cnc2cc(-c3ccc(CCO)cc3)ccc2c1=O)(C(=O)NO)S(C)(=O)=O` [Example 44, (2R)—N-hydroxy-4-{7-[4-(2-hydroxyethyl)phenyl]-4-oxo-3,4-dihydroquinazolin-3-yl}-2-methanesulfonyl-2-methylbutanamide], the MIC in the assay with E. coli 7623 (setting [1]) worked out at 0.125 µg/mL (≈ 0.272 µM); in the assay on K. pneumoniae 1161486 (setting [2]) it was 1 µg/mL (≈ 2.18 µM); in the assay on P. aeruginosa PA01 (setting [3]), 1 µg/mL (≈ 2.18 µM).

In the case of `COCCNCc1ccc(-c2ccc3c(=O)n(CC[C@](C)(C(=O)NO)S(C)(=O)=O)cc(F)c3c2)c(F)c1` [Example 88, (2R)-4-[4-fluoro-6-(2-fluoro-4-{[(2-methoxyethyl)amino]methyl}phenyl)-1-oxo-1,2-dihydroisoquinolin-2-yl]-N-hydroxy-2-methanesulfonyl-2-methylbutanamide], the MIC with E. coli 7623 (setting [1]) was found to be 0.125 µg/mL (≈ 0.233 µM); in the assay with K. pneumoniae 1161486 (setting [2]) it was 0.25 µg/mL (≈ 0.465 µM); in the assay on P. aeruginosa PA01 (setting [3]) it was 2 µg/mL (≈ 3.72 µM).

With `C[C@@](CCn1cnc2cc(-c3ccc(CNC4CC4)cc3F)c(F)cc2c1=O)(C(=O)NO)S(C)(=O)=O` [Example 25, (2R)-4-(7-{4-[(cyclopropylamino)methyl]-2-fluorophenyl}-6-fluoro-4-oxo-3,4-dihydroquinazolin-3-yl)-N-hydroxy-2-methanesulfonyl-2-methylbutanamide], the values for the MIC in the assay with E. coli 7623 (setting [1]), with K. pneumoniae 1161486 (setting [2]) and with P. aeruginosa PA01 (setting [3]) were 0.063 µg/mL (≈ 0.121 µM), 0.5 µg/mL (≈ 0.961 µM) and 1 µg/mL (≈ 1.92 µM), respectively.

`CN(C)c1ccc(-c2ccc3c(=O)n(CC[C@](C)(C(=O)NO)S(C)(=O)=O)ccc3c2)cc1` [Example 61, (2R)-4-{6-[4-(dimethylamino)phenyl]-1-oxo-1,2-dihydroisoquinolin-2-yl}-N-hydroxy-2-methanesulfonyl-2-methylbutanamide]: the MIC with E. coli 7623 (setting [1]) is < 0.03 µg/mL; in the assay with K. pneumoniae 1161486 (setting [2]) it was 1 µg/mL (≈ 2.19 µM); in the assay on P. aeruginosa PA01 (setting [3]), > 32 µg/mL.

With `CN(Cc1ccc(-c2ccc3c(=O)n(CC[C@](C)(C(=O)NO)S(C)(=O)=O)cnc3c2)cc1F)C1CC1` [Example 39, (2R)-4-[7-(4-{[cyclopropyl(methyl)amino]methyl}-3-fluorophenyl)-4-oxo-3,4-dihydroquinazolin-3-yl]-N-hydroxy-2-methanesulfonyl-2-methylbutanamide], the MIC in the assay on E. coli 7623 (setting [1]) is < 0.03 µg/mL; in the assay on K. pneumoniae 1161486 (setting [2]), 0.5 µg/mL (≈ 0.968 µM); in the assay on P. aeruginosa PA01 (setting [3]), 4 µg/mL (≈ 7.74 µM).

Take `C[C@@](CCn1cnc2cc(-c3ccccc3)ccc2c1=O)(C(=O)NO)S(C)(=O)=O` [Example 1, (R)—N-hydroxy-2-methyl-2-(methylsulfonyl)-4-(4-oxo-7-phenylquinazolin-3(4H)-yl)butanamide]: the results for the MIC with E. coli 7623 (setting [1]), with K. pneumoniae 1161486 (setting [2]) and in the assay with P. aeruginosa PA01 (setting [3]) were 0.5 µg/mL (≈ 1.2 µM), 0.25 µg/mL (≈ 0.602 µM) and 1 µg/mL (≈ 2.41 µM), respectively.

For `Cc1ccc(-c2ccc3c(=O)n(CC[C@](C)(C(=O)NO)S(C)(=O)=O)cnc3c2)cc1F` [Example 9, (R)-4-(7-(3-fluoro-4-methylphenyl)-4-oxoquinazolin-3(4H)-yl)-N-hydroxy-2-methyl-2-(methylsulfonyl)butanamide], the MIC in the assay with E. coli 7623 (setting [1]) is ≤ 0.03 µg/mL; with K. pneumoniae 1161486 (setting [2]), 0.125 µg/mL (≈ 0.279 µM); with P. aeruginosa PA01 (setting [3]), 8 µg/mL (≈ 17.9 µM).

For the compound `CN(C)Cc1ccc(-c2ccc3c(=O)n(CC[C@](C)(C(=O)NO)S(C)(=O)=O)ccc3c2)c(F)c1` [Example 65, (2R)-4-(6-{4-[(dimethylamino)methyl]-2-fluorophenyl}-1-oxo-1,2-dihydroisoquinolin-2-yl)-N-hydroxy-2-methanesulfonyl-2-methylbutanamide], the MIC with E. coli 7623 (setting [1]) came out at 0.25 µg/mL (≈ 0.511 µM); in the assay on K. pneumoniae 1161486 (setting [2]) it was 0.5 µg/mL (≈ 1.02 µM); in the assay on P. aeruginosa PA01 (setting [3]) it was 4 µg/mL (≈ 8.17 µM).

Take `C[C@@](CCn1cc(F)c2cc(-c3ccccc3)ccc2c1=O)(C(=O)NO)S(C)(=O)=O` [Example 84, (2R)-4-(4-fluoro-1-oxo-6-phenyl-1,2-dihydroisoquinolin-2-yl)-N-hydroxy-2-methanesulfonyl-2-methylbutanamide]: the MIC in the assay on E. coli 7623 (setting [1]) was determined as 0.5 µg/mL (≈ 1.16 µM); with K. pneumoniae 1161486 (setting [2]) it was 0.25 µg/mL (≈ 0.578 µM); with P. aeruginosa PA01 (setting [3]) it was 4 µg/mL (≈ 9.25 µM).

For `C[C@@](CCn1ccc2cc(-c3ccc4c(c3)COC4)ccc2c1=O)(C(=O)NO)S(C)(=O)=O` [Example 57, (2R)-4-[6-(1,3-dihydro-2-benzofuran-5-yl)-1-oxo-1,2-dihydroisoquinolin-2-yl]-N-hydroxy-2-methanesulfonyl-2-methylbutanamide], the MIC was found to be 0.063 µg/mL (≈ 0.138 µM) in the assay on E. coli 7623 (setting [1]), 0.25 µg/mL (≈ 0.548 µM) with K. pneumoniae 1161486 (setting [2]) and 2 µg/mL (≈ 4.38 µM) in the assay with P. aeruginosa PA01 (setting [3]).

(Values after patent US10781184B2, “Substituted benzazinones as antibacterial compounds” (GlaxoSmithKline Intellectual Property Development Limited, priority 2015, dated 2020).)
